Experimental findings from patent publication US10005767B2, “Compositions and methods for inhibition of the JAK pathway” (Rigel Pharmaceuticals, Inc., priority 2009, dated 2018) are described below.

Where a name gives a salt, the structure may show the parent alone.

The term IC50 denotes the midpoint of a concentration-inhibition curve.

For the first experiment, the system named is human primary T-cells, IL-2 stimulated proliferation (JAK-1 and JAK-3 dependent; reported as JAK3 activity). The experiment in a line: Human primary T-cell proliferation stimulated by IL-2 (Example 3). In kind it is cell-based. To be noted: Homo sapiens, T-cell, tested under conditions described in Example 3 (IL-2 stimulated human primary T-cell proliferation); read-out: ability to inhibit JAK3 activity, IC50 range (Table V). In outline:
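Peripheral-blood human T-cells pre-activated via TCR/CD28, IL-2-starved overnight, then cultured 72 h at 37 °C with compound in Yssel's medium containing IL-2 (80 U/mL in cell suspension). Proliferation read as viable-cell ATP by CellTiter-Glo luminescence; reduction versus control taken as JAK pathway inhibition.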
Turning to `Cc1cnc(Nc2cccc(S(=O)(=O)N3CCOCC3)c2)nc1Nc1ccc2oc(=O)[nH]c2c1` [Compound I-30, N4-(benzo[d]oxazol-2(3H)-on-5-yl)-N2-(3-(morpholinosulfonyl)phenyl)-5-methylpyrimidine-2,4-diamine], the IC50 was under 0.5 µM. On the same count and under the same terms, as for `Cc1cnc(Nc2cnc(N3CC4CCC(C3)N4C(=O)C(F)(F)F)c(C)c2)nc1Nc1ccc2oc(=O)[nH]c2c1` [II-63, 5-(5-methyl-2-(5-methyl-6-(8-(2,2,2-trifluoroacetyl)-3,8-diaza-bicyclo[3.2.1]octan-3-yl)pyridin-3-ylamino)pyrimidin-4-ylamino)benzo[d]oxazol-2(3H)-one], the figure is under 0.5 µM; as for `Cc1cnc(Nc2ccc(N3CCN(C)CC3)nn2)nc1Nc1ccc2oc(=O)[nH]c2c1` [IV-3, N4-(benzo[d]oxazol-2(3H)-on-5-yl)-N2-(6-(4-methylpiperazin-1-yl)pyridazin-3-yl)-5-methylpyrimidine-2,4-diamine], over 10 µM; as for `CCN(CC)C1CCN(C(=O)c2ccc(Nc3ncc(C)c(Nc4ccc5oc(=O)[nH]c5c4)n3)cc2)C1` (centres unmarked) [Compound I-128, 5-{2-[4-(3-Diethylamino-pyrrolidine-1-carbonyl)-phenylamino]-5-methyl-pyrimidin-4-ylamino}-3H-benzooxazol-2-one], under 0.5 µM. On the same count and under the same terms, the result for `CCNC(C)c1cc(Nc2ncc(C)c(Nc3ccc4oc(=O)[nH]c4c3)n2)cc(C(F)(F)F)c1` (centres unmarked) [Compound I-462, 5-(2-(3-(1-(ethylamino)ethyl)-5-(trifluoromethyl)phenylamino)-5-methylpyrimidin-4-ylamino)benzo[d]oxazol-2(3H)-one] reads under 0.5 µM; that for `Cc1cnc(Nc2ccc(N3CCCC3)nc2)nc1Nc1ccc2oc(=O)[nH]c2c1` [II-71, 5-(5-methyl-2-(6-(pyrrolidin-1-yl)pyridin-3-ylamino)pyrimidin-4-ylamino)benzo[d]oxazol-2(3H)-one], under 0.5 µM. As to `CCNC(=O)NC1CCN(c2ccc(Nc3ncc(C)c(Nc4ccc5oc(=O)[nH]c5c4)n3)cn2)C1` (centres unmarked) [II-96, 1-ethyl-3-(1-(5-(5-methyl-4-(2-oxo-2,3-dihydrobenzo[d]oxazol-5-ylamino)pyrimidin-2-ylamino)pyridin-2-yl)pyrrolidin-3-yl)urea], the IC50 is under 0.5 µM.

Consider `COc1cc(Nc2ncc(C)c(Nc3cc(F)c4oc(=O)[nH]c4c3)n2)cc(C)c1F` [Compound I-492, 7-fluoro-5-(2-(4-fluoro-3-methoxy-5-methylphenylamino)-5-methylpyrimidin-4-ylamino)benzo[d]oxazol-2(3H)-one], for which the IC50 is under 0.5 µM. As for `Cc1cnc(Nc2ccc3[nH]ncc3c2)nc1Nc1ccc2oc(=O)[nH]c2c1` [IV-6, N4-(benzo[d]oxazol-2(3H)-on-5-yl)-N2-(1H-indazol-5-yl)-5-methylpyrimidine-2,4-diamine], the IC50 was under 0.5 µM. Same read-out and setting: as for `Cc1cnc(Nc2ccc(N3CCN(C)[C@H](C)C3)nc2)nc1Nc1ccc2oc(=O)[nH]c2c1` [II-55, (R)-5-(2-(6-(3,4-dimethylpiperazin-1-yl)pyridin-3-ylamino)-5-methylpyrimidin-4-ylamino)benzo[d]oxazol-2(3H)-one], the figure is under 0.5 µM. The same measure, in the same setting: as for `COc1ccc(Nc2ncc(C)c(Nc3ccc4oc(=O)[nH]c4c3)n2)cc1-c1cccnc1` [Compound I-487, 5-(2-(4-methoxy-3-(pyridin-3-yl)phenylamino)-5-methylpyrimidin-4-ylamino)benzo[d]oxazol-2(3H)-one formate salt], the figure is under 0.5 µM; as for `Cc1cnc(Nc2cccc(S(N)(=O)=O)c2)nc1Nc1cc(C)c2oc(=O)[nH]c2c1` [Compound I-243, 3-(5-methyl-4-(7-methyl-2-oxo-2,3-dihydrobenzo[d]oxazol-5-ylamino)pyrimidin-2-ylamino)benzenesulfonamide], under 0.5 µM. On the same count and under the same terms, as for `Cc1cccc(Nc2ncc(C)c(Nc3ccc4oc(=O)[nH]c4c3)n2)n1` [IV-51, 5-(5-methyl-2-(6-methylpyridin-2-ylamino)pyrimidin-4-ylamino)benzo[d]oxazol-2(3H)-one], the figure is 0.5 to 5 µM.

For `Cc1cnc(Nc2ccc(-c3ccc(Cl)nc3)cc2)nc1Nc1ccc2oc(=O)[nH]c2c1` [Compound I-509, 5-(2-(4-(6-chloropyridin-3-yl)phenylamino)-5-methylpyrimidin-4-ylamino)benzo[d]oxazol-2(3H)-one trifluoroacetate salt], the 50% inhibitory concentration (IC50) was over 10 µM. `Cc1cnc(Nc2ccc(N3CC4(C)CN(C)CC(C)(C3)C4)c(F)c2)nc1Nc1ccc2oc(=O)[nH]c2c1` [Compound I-6, N4-(benzo[d]oxazol-2(3H)-on-5-yl)-N2-(3-fluoro-4-(1,5,7-trimethyl-3,7-diazabicyclo[3.3.1]nonan-3-yl)phenyl)-5-methylpyrimidine-2,4-diamine]: the IC50 is under 0.5 µM. Same read-out and setting: as for `Cc1cnc(Nc2ccc3c(c2)CCCC(=O)N3)nc1Nc1ccc2oc(=O)[nH]c2c1` [IV-31, 5-(5-methyl-2-(2-oxo-2,3,4,5-tetrahydro-1H-benzo[b]azepin-7-ylamino)pyrimidin-4-ylamino)benzo[d]oxazol-2(3H)-one], the figure is under 0.5 µM; as for `[2H]C([2H])([2H])Oc1ccc(Nc2ncc(C)c(Nc3ccc4oc(=O)[nH]c4c3)n2)cc1C` [Compound I-264, 5-(2-(3-methyl-4-trideuteromethoxyphenylamino)-5-methylpyrimidin-4-ylamino)benzo[d]oxazol-2(3H)-one], under 0.5 µM. Consider `Cc1cnc(Nc2cccc(Cl)c2)nc1Nc1ccc2oc(=O)[nH]c2c1` [Compound I-173, 5-[2-(3-Chloro-phenylamino)-5-methyl-pyrimidin-4-ylamino]-3H-benzooxazol-2-one], for which the IC50 is under 0.5 µM. On the same count and under the same terms, as for `COc1cc(Nc2ncc(C)c(Nc3ccc4oc(=O)[nH]c4c3)n2)ccc1C(=O)N(C)C` [Compound I-267, 2-methoxy-N,N-dimethyl-4-(5-methyl-4-(2-oxo-2,3-dihydrobenzo[d]oxazol-5-ylamino)pyrimidin-2-ylamino)benzamide], the figure is under 0.5 µM.

Still in this experiment, the particulars now being: tested under conditions described in Example 3 (IL-2 stimulated human primary T-cell proliferation); read-out: ability to inhibit JAK3 activity, IC50 range (Table V).
In the case of `Cc1ccc(Nc2ncc(F)c(Nc3ccc4oc(=O)n(C)c4c3)n2)cc1NS(C)(=O)=O` [Compound I-85, N2-((3-methylsulfonylamino-4-methyl)phenyl)-N4-(3-methyl-2-oxo-2,3-dihydrobenzo[d]oxazol-5-yl)-5-fluoropyrimidine-2,4-diamine], the IC50 was in the range of 0.5 to 5 µM. With `Cc1cnc(Nc2ccc(S(C)(=O)=O)cc2)nc1Nc1ccc2oc(=O)[nH]c2c1` [Compound I-17], the IC50 was under 0.5 µM. With `Cc1cnc(Nc2ccc(Cl)c(OC(F)F)c2)nc1Nc1ccc2oc(=O)[nH]c2c1` [Compound I-418, N2-(4-chloro-3-difluoromethoxy)phenyl-5-methyl-N4-(2-oxo-2,3-dihydro-1,3-benzoxazol-5-yl)-2,4-pyrimidinediamine], the IC50 is under 0.5 µM. Same read-out and setting: the result for `Cc1cnc(Nc2cc(C)c(C)c(C)c2)nc1Nc1cc(Cl)c2oc(=O)n(COP(=O)(O)O)c2c1` [Compound I-525, N4-[7-chloro-3-(phosphonooxy)methyl-2-oxo-2,3-dihydro-1,3-benzoxazol-5-yl]-5-methyl-N2-(3,4,5-trimethyl)phenyl-2,4-pyrimidinediamine] reads 0.5 to 5 µM; that for `Cn1c(=O)oc2cc(Nc3nc(Nc4ccc(S(C)(=O)=O)cc4)ncc3F)ccc21` [Compound I-60], over 10 µM; that for `Cc1cnc(Nc2ccc(C#N)cc2)nc1Nc1ccc2[nH]c(=O)[nH]c2c1` [Compound I-29, N4-(benzimidazolin-2-on-5-yl)-N2-(4-cyanophenyl)-5-methylpyrimidine-2,4-diamine], over 10 µM. The same measure, in the same setting: the result for `Cc1cnc(Nc2ccc(-n3cccc3)c(C#N)c2)nc1Nc1ccc2oc(=O)[nH]c2c1` [Compound I-295, N2-[3-cyano-4-(1H-pyrrol-1-yl)]phenyl-5-methyl-N4-(2-oxo-2,3-dihydro-1,3-benzoxazol-5-yl)-2,4-pyrimidinediamine] reads under 0.5 µM; that for `Cc1cnc(Nc2ccc(N3CCN(C)CC3)nc2)nc1Nc1ccc2c(c1)n(C)c(=O)n2C` [II-20, N4-(1,3-dimethylbenzimidazolin-2-on-5-yl)-N2-[2-(4-methylpiperazino)pyridin-5-yl]-5-methylpyrimidine-2,4-diamine], under 0.5 µM. Still for that read-out and setting: the result for `Cc1cnc(Nc2ccc(N3CCN(C)CC3)c(C#N)c2)nc1Nc1ccc2oc(=O)[nH]c2c1` [Compound I-341, N2-[3-cyano-4-(4-methylpiperazino)]phenyl-5-methyl-N4-(2-oxo-2,3-dihydro-1,3-benzoxazol-5-yl)-2,4-pyrimidinediamine] reads under 0.5 µM; that for `Cc1ccc(Nc2ncc(F)c(Nc3ccc4c(c3)oc(=O)n4C)n2)cc1NS(C)(=O)=O` [Compound I-86, N2-((3-methylsulfonylamino-4-methyl)phenyl)-N4-(3-methyl-2-oxo-2,3-dihydrobenzo[d]oxazol-6-yl)-5-fluoropyrimidine-2,4-diamine], over 10 µM.

Regarding `Cc1cnc(Nc2cccc(C(O)C(F)(F)F)c2)nc1Nc1ccc2oc(=O)[nH]c2c1` (centres unmarked) [Compound I-304, N2-[3-(1-hydroxy-2,2,2-trifluoroethyl)]phenyl-5-methyl-N4-(2-oxo-2,3-dihydro-1,3-benzoxazol-5-yl)-2,4-pyrimidinediamine], the IC50 was under 0.5 µM. Regarding `Cc1cnc(Nc2ccc(S(=O)(=O)NC(C)(C)C)cc2)nc1Nc1ccc2oc(=O)[nH]c2c1` [Compound I-112, N4-(benzoxazolin-2-on-5-yl)-N2-[4-N-(t-butyl)aminosulfonylphenyl]-5-methylpyrimidine-2,4-diamine], the IC50 was under 0.5 µM. Turning to “N4-(benzo[d]oxazol-2(3H)-on-5-yl)-N2-(2-(bicyclo[2.2.1]heptan-2-ylmethyl)isoindolin-5-yl)-5-methylpyrimidine-2,4-diamine [III-11]”, the IC50 is under 0.5 µM.
